{
  "source": "patent US20080269332A1",
  "about": "“EYELASH ENHANCEMENT COMPOSITION AND METHOD OF TREATMENT” (LA CANADA VENTRURES, INC., priority 2007, published 2008)",
  "system": "eyelash growth",
  "assay": "Randomized double blind clinical trial of eyelash growth, daily topical application to root of upper eyelashes for 4 weeks",
  "assay_type": "in vivo, human",
  "protocol": "These solutions were each applied daily to the roots of the upper right and left eyelashes of the patients in a quantity of approximately 0.0164 ml. Patients applied the eyelash product daily for 4 weeks on the root of the upper eyelashes only since some of the solution used may ultimately be deposited on the lower lash interfering with the studies' parameters. Methods: 34 patients were randomly assigned to one of three different treatment groups based on a standard treatment of the upper right lash and different treatments of the upper left eye lash with varying concentrations of the active product and a placebo. Age range of the patients was 20-56; 33 female, 1 male. Three different treatment Groups were constructed based on RIGHT EYE lash treatment/LEFT EYE lash treatment and defined as Groups A/B, A/D and A/C). All patients used Solution A on the right eye lash which is the “Control Group”, with Solutions B, D, and C used on the left eye lash of these same patients. Group A/B (14 patients) used Solution A on the upper right lash and Solution B on the upper left lash. Group A/D (9 patients) used Solution A on the upper right lash and Solution D on the upper left lash. Group A/C (11 patients) used Solution A on the upper right lash and the placebo, Solution C, on the upper left lash. After four (4) weeks upper RIGHT eyelash measurement were made for all 34 randomized patients. The upper LEFT eyelash measurement were made for the 14 patients using Solution B, for the 9 patients using Solution D and the 11 patients using Solution C (the placebo). Eyelash measurements for both the upper right and left eyelashes were taken in the medial, middle and lateral locations on both upper and lower eyelids using micocalipers and measured to 0.1 mm. The mean of the six measurements were then used to calculate the eyelash length for each eye. Measurements were taken at the initiation of the study to use as standard base. The technicians performing the measurements were blinded to the patient group assignment. A paired two-tailed Student's t-Test was used for statistical analysis. All patients enrolled into the study underwent a standard informed consent procedure.",
  "data": [
    {"molecule": "CCNC(=O)CCC/C=C\\C[C@@H]1[C@@H](/C=C/[C@@H](O)COc2ccccc2)[C@H](O)C[C@@H]1O", "note": "[active agent, (z)-7-((1R,2R,3R,5S)-3,5-dihydroxy-2-((R,E)-3-hydroxy-4-phenoxybut-1-enyl)cyclopentyl)-N-ethylhept-5-enamide]", "values": [
      {"measurement": "increase lash growth relative to placebo (growth with active / growth with placebo ×100)", "setting": "4 weeks of daily use, placebo Solution C growth 0.63 mm", "result": 268.25, "unit": "%"},
      {"measurement": "patients subjectively reporting an increase in the thickness or fullness of their eyelashes", "setting": "9/34 patients, 4 weeks of daily use", "result": 26, "unit": "%"},
      {"measurement": "patients reporting mild or minimal irritation", "setting": "19/34 patients, typically resolved after several days of use", "result": 56, "unit": "%"},
      {"measurement": "patients reporting moderate irritation and discontinuing", "setting": "34 patients, daily topical use", "result": "One patient reported moderate irritation and discontinued the product"}
    ]}
  ]
}
